Results on 21 molecules are retold here after publication PMC8151276, “An Integrated Approach toward NanoBRET Tracers for Analysis of GPCR Ligand Engagement” (Molecules, 2021).

The assay deals with T1, P2RY8 (Homo sapiens, UniProt Q86VZ1).
T1 construct: purchased Promega (in-house HiBiT-GPCR construct library, NanoBRET)
As to the kind of experiment: NanoBRET screen HiBiT-P2RY8 in HEK293. The format is binding. The protocol:
Each tracer candidate was screened across the entire library of HiBiT-GPCR constructs using NanoBRET as the detection modality. As depicted in Figure 4A, the specificity of interactions was evaluated through decrease in BRET due to competitive displacement of a bound tracer by excess parental compound. Each tracer was analyzed for binding to each HiBiT-GPCR fusion in the absence and in the presence of competing parental compound. Briefly, HEK293 cells were transfected with HiBiT-GPCR constructs diluted into promoterless DNA to reduce expression and maximize translocation to the cell surface. Each tracer candidate was then screened at concentrations of 1 μM and 0.1 μM across cells expressing these fusions. Cells were treated for 1.5 h with tracer either alone or in the presence of 20 μM competing parental compound (i.e., control). BRET was measured upon addition of purified LgBiT and subsequent complementation with HiBiT genetically fused to a GPCR. The specificity of interactions was assessed through a decrease in BRET signal due to competitive displacement of the bound tracer. To further gauge the robustness of these interactions, the fold response over the control (i.e., BRETtracer/BRETcontrol) was calculated. We chose a 1.5-fold response, which translates to ≥7-fold signal over noise as the minimal threshold required to score an interaction as positive.
HiBiT-GPCR DNA constructs were diluted in 10 mM Tris pH 8 to a final concentration of 0.01 μg/μL, arrayed in 96-well plates and stored at −20 °C. For transfection, HEK293 cells were suspended in Opti-MEM (without phenol red) supplemented with 2% fetal bovine serum (Seradigm) and 100 units/mL penicillin–streptomycin (Gibco) at a final concentration of 220,000 cells/mL and dispensed into white 96-well plates at 90 μL/well. Subsequent transfections and screens were carried using an Agilent Bravo Automated Liquid Handling Platform. First, the 96-well HiBiT DNA arrays were diluted 25-fold in Opti-MEM (without serum or phenol red) to a final concentration of 0.0004 μg/μL and 20 μL of the diluted DNAs were transferred into new 96-well plates. Next, promoterless carrier DNA (1 μg/μL) was diluted 25-fold (0.04 μg/μL) and then dispensed into the diluted arrays at 20 μL/well. Following brief mixing, Viafect transfection reagent (Promega) diluted 16-fold into Opti-MEM was dispensed into the plates at 40 μL/well. After mixing by pipetting, plates were incubated for 10 min on the pipetting station deck. The DNA-transfection reagent complexes were then added to plates containing cells. To facilitate the screen, 10 μL of DNA-transfection reagent complexes were added in duplicates to the top 4 and bottom 4 rows, resulting in two identical 48-well arrays per plate. Plates with transfected cells were incubated for 18–20 h at 37 °C/5% CO2. A screen of each tracer across the entire library using two different concentrations requires duplicate plates of transfected cells. Depending on the number of tracers being screened, transfections can be scaled up using the same ratios. The next day, for each tracer, four 20× screening solutions in tracer dilution buffer (Promega) were prepared: two duplicates at final concentration of 20 μM and two duplicates at a final concentration of 2 μM. […] The four resulting solutions were diluted 4-fold in Opti-MEM without serum or phenol red to generate 5× solutions (5 µM and 0.5 µM tracer +/− 100 μM competing compound). To screen the library, a BioTek MultiFlo FX liquid dispenser was used to dispense 22.5 µL of tracer solution to the top 4 rows and 22.5 µL tracer + competing compound solution to the 4 bottom rows. Plates were briefly mixed on an orbital shaker and incubated for 1.5 h at room temperature. […] Plates were briefly mixed on an orbital shaker and incubated for 15 min to allow complementation.
(In BRET a luciferase serves as donor, and the signal depends on an acceptor being close.)

T1 sequence (Q86VZ1 whole entry): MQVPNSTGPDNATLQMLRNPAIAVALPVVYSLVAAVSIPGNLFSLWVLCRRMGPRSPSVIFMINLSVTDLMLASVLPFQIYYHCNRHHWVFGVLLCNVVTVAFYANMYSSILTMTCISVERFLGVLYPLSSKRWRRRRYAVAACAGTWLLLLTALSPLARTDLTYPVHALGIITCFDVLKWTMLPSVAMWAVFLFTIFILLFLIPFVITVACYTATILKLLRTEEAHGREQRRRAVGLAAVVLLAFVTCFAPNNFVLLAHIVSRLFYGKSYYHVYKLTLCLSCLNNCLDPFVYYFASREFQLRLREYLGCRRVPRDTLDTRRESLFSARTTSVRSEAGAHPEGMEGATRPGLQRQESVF

On to `O=C(CCOCCOCCOCCOCCNC(=O)CCc1ccc2n1[B-](F)(F)[N+]1=C(c3ccc[nH]3)C=CC1=C2)NCCCN1CCN(C2=Nc3ccccc3Oc3ccc(Cl)cc32)CC1` [Loxapine-a-2-NB590], for which the “NanoBRET Fold Response” value was 0.95 (P2RY8, tracer 0.1μM) and 0.87 (P2RY8, tracer 1μM). Taken in the same sequence, the figures for `CCCn1c(=O)c2[nH]c(-c3ccc(OCC(=O)NCCNC(=O)CCOCCNC(=O)c4ccc(CNC(=O)CCc5ccc6n5[B-](F)(F)[N+]5=C(c7ccc[nH]7)C=CC5=C6)cc4)cc3)nc2n(CCC)c1=O` [XAC-3-NB590] were 1.30 and 0.83. For the molecule `CN(C)CCC=C1c2ccccc2CCc2ccc(C(=O)NCCNC(=O)CCOCCOCCOCCOCCNC(=O)CCc3ccc4n3[B-](F)(F)[N+]3=C(c5ccc[nH]5)C=CC3=C4)cc21` [Amitriptyline-a-2-NB590], the “NanoBRET Fold Response” value amounted to 1.05 (tracer at 0.1μM) and 0.90 (tracer at 1μM). On to `COc1ccccc1N1CCN(CCCCN2C(=O)c3ccc(CNC(=O)CCOCCOCCOCCOCCNC(=O)CCc4ccc5n4[B-](F)(F)[N+]4=C(c6ccc[nH]6)C=CC4=C5)cc3C2=O)CC1` [NAN-190-2-NB590], for which the “NanoBRET Fold Response” value is 0.99 (P2RY8, tracer 0.1μM) and 1.14 (P2RY8, tracer 1μM).

For `O=C(CCc1ccc2n1[B-](F)(F)[N+]1=C(c3ccc[nH]3)C=CC1=C2)NCc1ccc(C(=O)NCCOCCOCCNCC(O)COc2cccc3ccccc23)cc1` (stereo not shown) [Propranolol-3-NB590], the “NanoBRET Fold Response” value by setting is: (P2RY8, 0.1μM) 1.11; (P2RY8, 1μM) 1.00. `COc1ccccc1N1CCN(CCCCN2C(=O)c3ccc(CNC(=O)CCOCCNC(=O)c4ccc(CNC(=O)CCc5ccc6n5[B-](F)(F)[N+]5=C(c7ccc[nH]7)C=CC5=C6)cc4)cc3C2=O)CC1` [NAN-190-3-NB590]: the “NanoBRET Fold Response” value came out at 1.21 (P2RY8, tracer 0.1μM) and 1.12 (P2RY8, tracer 1μM). For `O=C(CCc1ccc2n1[B-](F)(F)[N+]1=C(c3ccc[nH]3)C=CC1=C2)NCc1ccc(C(=O)NCCOCCC(=O)N[C@@H]2CC[C@@]3(O)[C@H]4Cc5ccc(O)c6c5[C@@]3(CCN4CC3CC3)[C@H]2O6)cc1` [Naltrexone-3-NB590], in that order: 0.86 and 0.47. On to `CCOC(=O)c1cc(C#N)c(N2CCC(C(=O)NS(=O)(=O)Cc3ccccc3/C=C/C(=O)NCCNC(=O)CCc3ccc4n3[B-](F)(F)[N+]3=C(c5ccc[nH]5)C=CC3=C4)CC2)nc1C` [AZD1283-1-NB590], for which the “NanoBRET Fold Response” value reads like this: (P2RY8, 0.1μM) 1.56; (P2RY8, 1μM) 1.89. As to `COc1ccc2[nH]c(-c3ccc(CNC(=O)CCOCCOCCOCCOCCNC(=O)CCc4ccc5n4[B-](F)(F)[N+]4=C(c6ccc[nH]6)C=CC4=C5)cc3)c(CCNC(C)=O)c2n1` [AzomelatoninICO9-2-NB590], the “NanoBRET Fold Response” value (0.1μM tracer) is recorded as 1.14 and the “NanoBRET Fold Response” value (1μM tracer) is given as 1.05. Turning to `CC(C)N(CC[C@H](c1ccccc1)c1cc(CCNC(=O)CCOCCOCCOCCOCCNC(=O)CCc2ccc3n2[B-](F)(F)[N+]2=C(c4ccc[nH]4)C=CC2=C3)ccc1O)C(C)C` [Tolterodine-2-NB590], the “NanoBRET Fold Response” value by setting is: (P2RY8, tracer 0.1μM) 1.06; (P2RY8, tracer 1μM) 1.22. As for `CN1CCN(C2=Nc3cc(Cl)ccc3N(CC(=O)NCCOCCOCCOCCOCCNC(=O)CCc3ccc4n3[B-](F)(F)[N+]3=C(c5ccc[nH]5)C=CC3=C4)c3ccccc32)CC1` [Clozapine-c-2-NB590], the “NanoBRET Fold Response” value is, setting by setting: (P2RY8, 0.1μM tracer) 1.05; (P2RY8, 1μM tracer) 0.79.

Regarding `N#CN=C(NCCCOc1cccc(CN2CCCCC2)c1)NCCNC(=O)CCOCCOCCOCCOCCNC(=O)CCc1ccc2n1[B-](F)(F)[N+]1=C(c3ccc[nH]3)C=CC1=C2` [Aminopotentidine-2-NB590], the “NanoBRET Fold Response” value (P2RY8, tracer 0.1μM) was 1.06 and the “NanoBRET Fold Response” value (P2RY8, tracer 1μM) stood at 1.02.

In the case of `COc1ccc2c(n1)c(CCNC(C)=O)cn2CCNC(=O)CCc1ccc2n1[B-](F)(F)[N+]1=C(c3ccc[nH]3)C=CC1=C2` [Azamelatonin-1-NB590], the “NanoBRET Fold Response” value was 1.30 (0.1μM tracer) and 1.30 (1μM tracer). Turning to `CN(CCC=C1c2ccccc2CCc2ccccc21)C(=O)CCOCCOCCOCCOCCNC(=O)CCc1ccc2n1[B-](F)(F)[N+]1=C(c3ccc[nH]3)C=CC1=C2` [Amitriptyline-e-2-NB590], where the note is “tracer at 1μM”, the “NanoBRET Fold Response” value came out at 0.99. On to `CC(C)N(CC[C@H](c1ccccc1)c1cc(CCNC(=O)c2ccc(CNC(=O)CCc3ccc4n3[B-](F)(F)[N+]3=C(c5ccc[nH]5)C=CC3=C4)cc2)ccc1O)C(C)C` [Tolterodine-BZ-NB590], for which the “NanoBRET Fold Response” value runs as follows: (P2RY8, tracer 0.1μM) 0.96; (P2RY8, tracer 1μM) 1.01. With `O=C(CCc1ccc2n1[B-](F)(F)[N+]1=C(c3ccc[nH]3)C=CC1=C2)NCCOCCOCCNC(=O)OCCOCCN1CCN(C2=Nc3ccccc3Sc3ccccc32)CC1` [Quetiapine-a-2-NB590], the “NanoBRET Fold Response” value is 0.94 (P2RY8, tracer 0.1μM) and 0.88 (P2RY8, tracer 1μM). Take `Cc1cc2c(s1)Nc1ccccc1N=C2N1CCN(CCCNC(=O)CCOCCOCCOCCOCCNC(=O)CCc2ccc3n2[B-](F)(F)[N+]2=C(c4ccc[nH]4)C=CC2=C3)CC1` [Olanzapine-a-2-NB590]: the “NanoBRET Fold Response” value (P2RY8, tracer 1μM) amounted to 1.13. Regarding `CN(C)CCC=C1c2ccccc2CCc2ccc(C(=O)NCCNC(=O)CCOCCOCCOCCOCCNC(=O)CCc3ccc4n3[B-](F)(F)[N+]3=C(c5ccc[nH]5)C=CC3=C4)cc21` [Amitriptyline-b-2-NB590], the “NanoBRET Fold Response” value is, setting by setting: (tracer at 0.1μM, listed as amitriptyline-b-2-NB590) 0.88; (tracer at 1μM, listed as amitriptyline-b-2-NB590) 1.07.

As for `O=C(CCOCCOCCOCCOCCNC(=O)CCc1ccc2n1[B-](F)(F)[N+]1=C(c3ccc[nH]3)C=CC1=C2)NCCCN1CCN(C2=Nc3cc(Cl)ccc3Nc3ccccc32)CC1` [Clozapine-a-2-NB590], the “NanoBRET Fold Response” value came to 0.97 (P2RY8, 0.1μM tracer) and 0.96 (P2RY8, 1μM tracer). With `CN1CCN(C2=Nc3cc(Cl)ccc3Nc3ccc(CNC(=O)CCOCCOCCOCCOCCNC(=O)CCc4ccc5n4[B-](F)(F)[N+]4=C(c6ccc[nH]6)C=CC4=C5)cc32)CC1` [Clozapine-b-2-NB590], the “NanoBRET Fold Response” value is, setting by setting: (P2RY8, 0.1μM tracer) 0.97; (P2RY8, 1μM tracer) 0.93. Consider `Cc1nc2n(c(=O)c1CCN1CCC(c3noc4cc(F)ccc34)CC1)CCCC2OC(=O)NCCOCCOCCOCCOCCNC(=O)CCc1ccc2n1[B-](F)(F)[N+]1=C(c3ccc[nH]3)C=CC1=C2` (stereo not shown) [Risperidone-2-NB590], for which the “NanoBRET Fold Response” value is, setting by setting: (P2RY8, tracer 0.1μM) 1.06; (P2RY8, tracer 1μM) 0.96.
